Measured values from patent US20070128217A1 (priority 2003, published 2007).

What was measured:
[1] = test system: antibodies in sera from SARS patients (sera 1a, 1b, 2, 6, 37, 62, London, SARS-yellow, SARS-green); type: binding, human; set-up: Binding of serum 6 to linear peptides of protein X1 of SARS-CoV Urbani / Binding of serum 37 to linear peptides of protein X1 of SARS-CoV Urbani / Binding of serum 6 to looped/cyclic peptide (PEPSCAN-ELISA) / Binding of serum 37 to looped/cyclic peptide (PEPSCAN-ELISA) / Binding of serum 37 to looped/cyclic peptides of protein X1 of SARS-CoV Urbani / Binding of serum 6 to linear peptides of protein X2 / Binding of serum 37 to linear peptides of protein X2 / Binding of serum 37 to looped/cyclic peptides of protein X2 of SARS-CoV Urbani / Binding of serum 6 to linear peptides of protein M of SARS-CoV Urbani / Binding of serum 37 to linear peptides of protein M of SARS-CoV Urbani / Binding of serum 6 to looped/cyclic peptides of protein M of SARS-CoV Urbani / Binding of serum 37 to looped/cyclic peptides of protein M of SARS-CoV Urbani / Binding of serum 6 to linear peptides of protein X3 of SARS-CoV Urbani / Binding of serum 37 to linear peptides of protein X3 of SARS-CoV Urbani / Binding of serum 37 to looped/cyclic peptides of protein X3 of SARS-CoV Urbani / Binding of serum 6 to linear peptides of protein X4 of SARS-CoV Urbani / Binding of serum 37 to linear peptides of protein X4 of SARS-CoV Urbani / Binding of serum 37 to looped/cyclic peptides of protein X4 of SARS-CoV Urbani / Binding of serum 6 to linear peptides of protein X5 of SARS-CoV Urbani / Binding of serum 37 to linear peptides of protein X5 of SARS-CoV Urbani / Binding of serum 37 to looped/cyclic peptides of protein X5 of SARS-CoV Urbani / Binding of serum 6 to linear peptides of protein N of SARS-CoV Urbani / Binding of serum 37 to linear peptides of protein N of SARS-CoV Urbani / Binding of serum 6 to linear peptide (PEPSCAN-ELISA) / Binding of serum 1a to looped/cyclic peptides of protein N of SARS-CoV Urbani / Binding of serum 1b to looped/cyclic peptides of protein N of SARS-CoV Urbani / Binding of serum 2 to looped/cyclic peptides of protein N of SARS-CoV Urbani / Binding of serum 6 to looped/cyclic peptides of protein N of SARS-CoV Urbani / Binding of serum 37 to looped/cyclic peptides of protein N of SARS-CoV Urbani / Binding of serum 62 to looped/cyclic peptides of protein N of SARS-CoV Urbani / Binding of serum London to looped/cyclic peptides of protein N of SARS-CoV Urbani / Binding of serum SARS-green to looped/cyclic peptides of protein N of SARS-CoV Urbani: unit not given here
[2] = test system: control sera (pooled serum of ten healthy LUMC hospital workers; commercial negative donor pooled serum from the Dutch bloodbank); type: binding, human; set-up: Binding of Control serum LUMC to linear peptides / Binding of Control serum Blood-bank to linear peptides / Binding of Control serum LUMC to looped peptides / Binding of Control Serum Blood-Bank to Looped peptides / Binding of Control serum LUMC to linear peptides of the protein M of SARS-CoV Urbani / Binding of Control serum Blood-bank to linear peptides of the protein M of SARS-CoV Urbani / Binding of Control serum LUMC to looped peptides of the protein M of SARS-CoV Urbani / Binding of Control Serum Blood-Bank to Looped peptides of the protein M of SARS-CoV Urbani: unit not given here
[3] = test system: rabbit serum obtained by immunizing a rabbit with the SARS-CoV strain Frankfurt 1; type: binding; set-up: Binding of a rabbit serum to linear peptides / Binding of a rabbit serum to looped peptides / Rabbit serum linear peptides / Rabbit serum looped peptides / Binding of a rabbit serum to linear peptides of protein N of SARS-CoV Urbani (Rabbit serum linear peptides) / Binding of a rabbit serum to looped/cyclic peptides of protein N of SARS-CoV Urbani (Rabbit serum looped peptides): unit not given here

Sequence: IGFLFLAWIMLLQFA
- Binding of serum 1a to linear peptides of protein M of SARS-CoV Urbani [1]: 0.7
- Binding of serum 1a to looped/cyclic peptides of protein M of SARS-CoV Urbani [1]: 0.8
- Binding of serum 1b to linear peptides of protein M of SARS-CoV Urbani [1]: 0.6
- Binding of serum 1b to looped/cyclic peptides of protein M of SARS-CoV Urbani [1]: 0.7
- Binding of serum 2 to linear peptides of protein M of SARS-CoV Urbani [1]: 0.5
- Binding of serum 2 to looped/cyclic peptides of protein M of SARS-CoV Urbani [1]: 0.6
- Binding of serum 6 to linear peptides of protein M of SARS-CoV Urbani [1]: 0.9
- Binding of serum 6 to looped/cyclic peptides of protein M of SARS-CoV Urbani [1]: 0.9
- Binding of serum 37 to linear peptides of protein M of SARS-CoV Urbani [1]: 0.4
- Binding of serum 37 to looped/cyclic peptides of protein M of SARS-CoV Urbani [1]: 0.7
- Binding of serum 62 to linear peptides of protein M of SARS-CoV Urbani [1]: 0.5
- Binding of serum 62 to looped/cyclic peptides of protein M of SARS-CoV Urbani [1]: 0.8
- Binding of serum London to linear peptides of protein M of SARS-CoV Urbani [1]: 0.6
- Binding of serum London to looped/cyclic peptides of protein M of SARS-CoV Urbani [1]: 0.3
- Binding of serum SARS-green to linear peptides of protein M of SARS-CoV Urbani [1]: 0.5
- Binding of serum SARS-green to looped/cyclic peptides of protein M of SARS-CoV Urbani [1]: 0.3
- Binding of serum SARS-yellow to linear peptides of protein M of SARS-CoV Urbani [1]: 0.2
- Binding of serum SARS-yellow to looped/cyclic peptides of protein M of SARS-CoV Urbani [1]: 0.5
- Binding of Control Serum Blood-Bank to Looped peptides of the protein M of SARS-CoV Urbani [2]: 0.7
- Binding of Control serum Blood-bank to linear peptides of the protein M of SARS-CoV Urbani [2]: 0.7
- Binding of Control serum LUMC to linear peptides of the protein M of SARS-CoV Urbani [2]: 0.7
- Binding of Control serum LUMC to looped peptides of the protein M of SARS-CoV Urbani [2]: 0.8
- Rabbit serum linear peptides [3]: 0.2
- Rabbit serum looped peptides [3]: 0.3

Sequence: IIMRCWLCWKCKSKN
- Binding of serum 1a to looped/cyclic peptide (PEPSCAN-ELISA) [1]: 0.5
- Binding of serum 1b to looped/cyclic peptide (PEPSCAN-ELISA) [1]: 0.3
- Binding of serum 2 to looped/cyclic peptide (PEPSCAN-ELISA) [1]: 0.3
- Binding of serum 6 to looped/cyclic peptide (PEPSCAN-ELISA) [1]: 0.5
- Binding of serum 37 to looped/cyclic peptide (PEPSCAN-ELISA) [1]: 0.4
- Binding of serum 62 to looped/cyclic peptide (PEPSCAN-ELISA) [1]: 0.5
- Binding of serum London to looped/cyclic peptide (PEPSCAN-ELISA) [1]: 0.2
- Binding of serum SARS-green to looped/cyclic peptide (PEPSCAN-ELISA) [1]: 0.2
- Binding of serum SARS-yellow to looped/cyclic peptide (PEPSCAN-ELISA) [1]: 0.3
- Recognition of the peptide by sera of SARS-CoV infected individuals, and form (linear, looped/cyclic) in which it is recognized [1]: recognized in linear form
- Binding of Control Serum Blood-Bank to Looped peptides [2]: 0.6
- Binding of Control serum Blood-bank to linear peptides [2]: 0.5
- Binding of Control serum LUMC to linear peptides [2]: 0.4
- Binding of Control serum LUMC to looped peptides [2]: 0.6
- Binding of a rabbit serum to linear peptides [3]: 0.2
- Binding of a rabbit serum to looped peptides [3]: 0.7

Sequence: IKDLPKEITVATSRT
- Binding of serum 1a to linear peptides of protein M of SARS-CoV Urbani [1]: 0.7
- Binding of serum 1a to looped/cyclic peptides of protein M of SARS-CoV Urbani [1]: 0.4
- Binding of serum 1b to linear peptides of protein M of SARS-CoV Urbani [1]: 0.5
- Binding of serum 1b to looped/cyclic peptides of protein M of SARS-CoV Urbani [1]: 0.4
- Binding of serum 2 to linear peptides of protein M of SARS-CoV Urbani [1]: 0.6
- Binding of serum 2 to looped/cyclic peptides of protein M of SARS-CoV Urbani [1]: 0.5
- Binding of serum 6 to linear peptides of protein M of SARS-CoV Urbani [1]: 0.3
- Binding of serum 6 to looped/cyclic peptides of protein M of SARS-CoV Urbani [1]: 0.4
- Binding of serum 37 to linear peptides of protein M of SARS-CoV Urbani [1]: 0.8
- Binding of serum 37 to looped/cyclic peptides of protein M of SARS-CoV Urbani [1]: 0.6
- Binding of serum 62 to linear peptides of protein M of SARS-CoV Urbani [1]: 0.8
- Binding of serum 62 to looped/cyclic peptides of protein M of SARS-CoV Urbani [1]: 0.6
- Binding of serum London to linear peptides of protein M of SARS-CoV Urbani [1]: 0.3
- Binding of serum London to looped/cyclic peptides of protein M of SARS-CoV Urbani [1]: 0.2
- Binding of serum SARS-green to linear peptides of protein M of SARS-CoV Urbani [1]: 0.2
- Binding of serum SARS-green to looped/cyclic peptides of protein M of SARS-CoV Urbani [1]: 0.3
- Binding of serum SARS-yellow to linear peptides of protein M of SARS-CoV Urbani [1]: 0.0
- Binding of serum SARS-yellow to looped/cyclic peptides of protein M of SARS-CoV Urbani [1]: 0.9
- Binding of Control Serum Blood-Bank to Looped peptides of the protein M of SARS-CoV Urbani [2]: 0.5
- Binding of Control serum Blood-bank to linear peptides of the protein M of SARS-CoV Urbani [2]: 0.6
- Binding of Control serum LUMC to linear peptides of the protein M of SARS-CoV Urbani [2]: 0.4
- Binding of Control serum LUMC to looped peptides of the protein M of SARS-CoV Urbani [2]: 0.7
- Rabbit serum linear peptides [3]: 0.3
- Rabbit serum looped peptides [3]: 0.2

Sequence: IKLVFLWLLWPVTLA
- Binding of serum 1a to linear peptides of protein M of SARS-CoV Urbani [1]: 0.7
- Binding of serum 1a to looped/cyclic peptides of protein M of SARS-CoV Urbani [1]: 0.7
- Binding of serum 1b to linear peptides of protein M of SARS-CoV Urbani [1]: 0.5
- Binding of serum 1b to looped/cyclic peptides of protein M of SARS-CoV Urbani [1]: 0.8
- Binding of serum 2 to linear peptides of protein M of SARS-CoV Urbani [1]: 0.7
- Binding of serum 2 to looped/cyclic peptides of protein M of SARS-CoV Urbani [1]: 0.6
- Binding of serum 6 to linear peptides of protein M of SARS-CoV Urbani [1]: 0.5
- Binding of serum 6 to looped/cyclic peptides of protein M of SARS-CoV Urbani [1]: 0.9
- Binding of serum 37 to linear peptides of protein M of SARS-CoV Urbani [1]: 0.6
- Binding of serum 37 to looped/cyclic peptides of protein M of SARS-CoV Urbani [1]: 0.8
- Binding of serum 62 to linear peptides of protein M of SARS-CoV Urbani [1]: 0.7
- Binding of serum 62 to looped/cyclic peptides of protein M of SARS-CoV Urbani [1]: 0.8
- Binding of serum London to linear peptides of protein M of SARS-CoV Urbani [1]: 0.6
- Binding of serum London to looped/cyclic peptides of protein M of SARS-CoV Urbani [1]: 0.3
- Binding of serum SARS-green to linear peptides of protein M of SARS-CoV Urbani [1]: 0.3
- Binding of serum SARS-green to looped/cyclic peptides of protein M of SARS-CoV Urbani [1]: 0.3
- Binding of serum SARS-yellow to linear peptides of protein M of SARS-CoV Urbani [1]: 0.1
- Binding of serum SARS-yellow to looped/cyclic peptides of protein M of SARS-CoV Urbani [1]: 0.5
- Binding of Control Serum Blood-Bank to Looped peptides of the protein M of SARS-CoV Urbani [2]: 0.9
- Binding of Control serum Blood-bank to linear peptides of the protein M of SARS-CoV Urbani [2]: 0.7
- Binding of Control serum LUMC to linear peptides of the protein M of SARS-CoV Urbani [2]: 0.4
- Binding of Control serum LUMC to looped peptides of the protein M of SARS-CoV Urbani [2]: 0.7
- Rabbit serum linear peptides [3]: 0.3
- Rabbit serum looped peptides [3]: 0.0
